# Data reported in patent US20230035479A1, “METHODS AND COMPOSITIONS FOR REDUCING HAIR GREYING” (President and Fellows of Harvard College, priority 2019, published 2023).
# Where two headings read alike, the source gives them in different places.
# Key:
# C57BL/6J mice = type: in vivo, mouse
# sympathetic neurons = assay: c-FOS immunofluorescence in sympathetic ganglia; type: in vivo, mouse; conditions: after RTX injection
# [1] = test system: melanocyte stem cells (MeSCs); assay: Apoptosis (active caspase-3, TUNEL) and DNA damage (gamma-H2AX) in MeSCs; type: in vivo, mouse
# Experimental: Radiation causes DNA damage in MeSCs, leading to their differentiation within the niche.
# (§1) Mouse skin samples were fixed using 4% paraformaldehyde (PFA) for 15 minutes at room temperature, washed 6 times with PBS, and immersed in 30% sucrose overnight at 4° C. Samples were then embedded in OCT (Sakura Finetek). 35˜50 μm sections were fixed in 4% paraformaldehyde (PFA) for 2 minutes and washed with PBS and PBST. Slides were then blocked using blocking buffer (5% donkey serum; 1% BSA, 2% cold water fish gelatin in 0.3% Triton in PBS) for 1 hour at room temperature, followed by staining with primary antibodies overnight at 4° C. and secondary antibody for 4 hours at room temperature. For sympathetic nerve density quantification, 90 μm sections were used. EdU was developed for 1 hour using the Click-It reaction according to manufacturer instructions (Thermo Fisher Scientific). TUNEL assay was performed according to manufacturer instructions (Roche). Fontana—Masson staining was performed according to manufacturer instructions (Market Lab ML7255). Antibodies used: TRP2 (Santa Cruz 10451, 1:800), tyrosine hydroxylase (rabbit, Millipore AB152, 1:1000 or sheep, Millipore AB1542, 1:150-1:300), c-Fos (Abcam, 190289, 1:1000), γ-H2AX (Cell Signaling, 9718, 1:400), phospho-histone H3 (rabbit, Cell Signaling Technology 3377S, 1:500), cleaved caspase 3 (rabbit, Cell Signaling Technology 9664S, 1:400), GFP (rabbit, Abcam ab290, 1:1000 or chicken, Ayes labs GFP-1010, 1:200), CD3 (eBioscience 14-0032-81, 1:800), CD11b (eBioscience 14-0112-81, 1:800), Phospho-CREB (Cell Signaling 9198, 1:800), MITF (Abcam ab12039, 1:400).
# [2] = test system: Phospho-CREB (a downstream effector of ADRB2); assay: Phospho-CREB immunofluorescence in hair follicles; type: in vivo, mouse; conditions: 12 hours after RTX injection; not in mature melanocytes
# Experimental: It was then considered whether ADRB2 might mediate the impact of stress on MeSCs.
# (§2) Mouse skin samples were fixed using 4% paraformaldehyde (PFA) for 15 minutes at room temperature, washed 6 times with PBS, and immersed in 30% sucrose overnight at 4° C. Samples were then embedded in OCT (Sakura Finetek). 35˜50 μm sections were fixed in 4% paraformaldehyde (PFA) for 2 minutes and washed with PBS and PBST. Slides were then blocked using blocking buffer (5% donkey serum; 1% BSA, 2% cold water fish gelatin in 0.3% Triton in PBS) for 1 hour at room temperature, followed by staining with primary antibodies overnight at 4° C. and secondary antibody for 4 hours at room temperature. For sympathetic nerve density quantification, 90 μm sections were used. EdU was developed for 1 hour using the Click-It reaction according to manufacturer instructions (Thermo Fisher Scientific). TUNEL assay was performed according to manufacturer instructions (Roche). Fontana—Masson staining was performed according to manufacturer instructions (Market Lab ML7255). […]
# mature melanocytes = assay: Differentiated/mature melanocytes and hair bulb cells, immunofluorescence; type: in vivo, mouse
# Experimental: Loss of hair pigmentation can be due to defects in melanin synthesis, loss of differentiated melanocytes, or problems in MeSC maintenance. To understand how stress impacts the melanocyte lineage, RTX was injected into mice in anagen, when both MeSCs and differentiated melanocytes were present but located within distinct compartments—MeSCs were near to the bulge while differentiated melanocytes were at the hair bulb (FIG. 1E). […] These differentiated melanocytes continued to generate pigments, and the hair coat remained black (FIGS. 6F-6G). When hair follicles in the RTX-injected animals entered catagen and telogen, many have lost all MeSCs (FIG. 1E, Telo). Subsequently, when the next round of anagen initiated, differentiated melanocytes were not produced to color new hair shafts, and unpigmented hairs emerged (FIG. 1E, 2nd Ana, FIG. 6H). […] In this case, unpigmented hairs appeared as soon as new hairs emerged in the following anagen (FIGS. 7A-7B). […] MeSCs were also lost or reduced in mice subjected to restraint stress or chronic unpredictable stress (FIG. 7C). Since stress depleted MeSCs, the loss of hair pigmentation in all three conditions was permanent (FIG. 7D).
# Quiescence is a key feature of many somatic stem cells. Loss of quiescence has been postulated to cause MeSC loss in Bcl2 mutants. To examine if stress alters MeSCs quiescence, RTX or norepinephrine was injected into mice that had entered full anagen, when MeSCs are normally quiescent. A dramatic increase in the number of proliferating MeSCs was seen within 24 hours after RTX or norepinephrine injection—about 50% of MeSCs became positive for Phospho-Histone H3, an M phase marker (FIG. 4B). This number is in sharp contrast to the MeSC proliferation seen in early anagen (˜6%), the only stage when MeSCs proliferate to self-renew (FIG. 11E).
# as §1
# [3] = Fontana-Masson melanin staining; type: in vivo, mouse; conditions: 5 days after RTX injection
# Experimental: They also began to depart from the bulge—some migrated downwards along the hair follicle, and some migrated out into dermis or epidermis (FIG. 4C, D2 and D3). By Day 3, many GFP positive cells had migrated out of the bulge, and by Day 4, many hair follicles had lost all GFP positive cells in the bulge.
# as §2
# [4] = test system: melanocyte stem cells (MeSCs); assay: MeSC proliferation, Phospho-Histone H3 immunofluorescence; conditions: within 24 hours after injection, full anagen
# Experimental: For RTX injection, mice received injections of RTX (30-100 μg/kg) in the flank for 1-3 days as described previously [15, 16, 51-56]. […] Control mice were treated with the vehicle only. RTX injection was done either in full anagen (P31-P36) or in 1st telogen (P21). […] RTX was given at Anagen VI (P31˜P36).
# All images were acquired using a Zeiss LSM 880 confocal microscope or Keyence microscope using ×20 or ×40 magnification lenses. Images are presented as Maximum Intensity Projection images. For colocalization analysis, images are presented as a single Z stack.
# [5] = test system: melanocyte stem cells (MeSCs); assay: MeSC numbers in hair follicles, TRP2 immunofluorescence or membrane GFP tracing
# Experimental: For RTX injection, mice received injections of RTX (30-100 μg/kg) in the flank for 1-3 days as described previously [15, 16, 51-56]. […] Control mice were treated with the vehicle only. RTX injection was done either in full anagen (P31-P36) or in 1st telogen (P21). […] Mice were treated for three days (P28-P30). […] RTX was given at Anagen VI (P31˜P36).
smiles,measurement,setting,value
"C=C(C)[C@]12C[C@@H](C)[C@@]34O[C@](Cc5ccccc5)(O[C@@H]1[C@@H]3C=C(COC(=O)Cc1ccc(O)c(OC)c1)C[C@]1(O)C(=O)C(C)=C[C@@H]41)O2 [RTX, resiniferatoxin]",hair greying (unpigmented hairs),"C57BL/6J mice; C57BL/6J mice, next hair cycle after RTX injection",many new hairs formed in the next hair cycle following RTX injection became unpigmented
same,"extent of hair greying, male vs female","C57BL/6J mice; RTX injection, male and female mice",same extent of hair greying in both male and female mice
same,white hair formation,"C57BL/6J mice; RTX into CD11b-DTR mice, myeloid lineages ablated by diphtheria toxin",still resulted in white hair formation
same,hair greying,C57BL/6J mice; RTX into RIPK3 mutant mice,still caused hair greying
same,white hair formation,C57BL/6J mice; RTX into Rag1 mutant mice lacking T and B cells,still resulted in white hair formation
same,hair greying,"C57BL/6J mice; RTX into Tyr-CreER, GR fl/fl mice (MeSC-GR cKO)",still resulted in hair greying
same,hair greying,C57BL/6J mice; RTX into adrenalectomized mice,still caused hair greying
same,white hair formation,"C57BL/6J mice; RTX, ADRB2 depleted from MeSCs using Tyr-CreER",white hairs failed to form
same,hair greying,"C57BL/6J mice; RTX, ADRB2 depleted from hair follicle stem cells",still resulted in hair greying
same,c-FOS induction in cell bodies of sympathetic neurons,sympathetic neurons,Robust c-FOS induction
same,time at which c-FOS induction diminishes,sympathetic neurons,> 24 h
same,time of peak c-FOS induction,sympathetic neurons,2 to 4 h
same,time to c-FOS induction,sympathetic neurons,≤ 1 h
same,active caspase-3 or TUNEL signals in MeSCs,"[1]; before MeSC depletion from the niche, 1 day after injection",failed to detect active caspase-3 or TUNEL signals
same,gamma-H2AX foci (DNA damage) in MeSCs,[1]; following injection,failure to detect gamma-H2AX foci
same,Phospho-CREB in MeSCs,[2],marked induction of Phospho-CREB
same,differentiated melanocytes in the same hair follicle,mature melanocytes; 5 days after RTX injection in anagen,remained unperturbed
same,proliferation or apoptosis in mature melanocytes,"mature melanocytes; after injection, full anagen",no changes in proliferation or apoptosis
same,ectopic pigmentation,[3],"ectopic pigmentation could be detected along the hair follicle, epidermis, and dermis"
same,MeSCs positive for Phospho-Histone H3,[4],about 50%
same,MeSC loss,[5]; RTX injected during telogen,caused MeSC loss
same,time to complete loss of MeSCs from the bulge in many hair follicles,[5]; RTX injected in anagen,≤ 5 days
same,TRP2+ MeSC number,"[5]; RTX injected in anagen, entire skin",significantly reduced
same,GFP positive cells (traced MeSCs),"[5]; Tyr-CreER, Rosa-mT/mG mice, shortly after RTX injection (D1)",transient increase in GFP positive cells
